Data published in patent US20160038532A1, “Treatment of Multiple Sclerosis With Combination of Laquinimod and Glatiramer Acetate” (TEVA PHARMACEUTICAL INDUSTRIES, LTD., priority 2011, published 2016).
Values joined by “and” are separate entries in the source; they are usually repeats but may differ in a detail not shown here. Equal values may be shown once. Marks after values point to notes of the source that are not given here.

Experiments:
MOG-induced EAE [1] = assay: Summary of studies of GA-blocking + laquinimod in MOG-induced EAE (Examples 2.1-2.3); format: in vivo, mice
Procedure: FIG. 4 is a graphical representation summarizing experimental results from Examples 2.1-2.3.
At higher doses (5 and 25 mg/kg) laquinimod provides an additive effect over GA-blocking as summarized in Table 9 and shown on FIGS. 4A and 4B.

MOG-induced EAE [2] = assay: MOG-induced EAE, lower doses of laquinimod with GA-blocking (Example 2.2); format: in vivo, C57B1/6 mice
Procedure: MOG is a member of the immunoglobulin superfamily expressed exclusively in CNS myelin. It is one of the most encephalitogenic proteins and is widely used to induce EAE in different rodent strains. In C57BL/6 mice, immunization with the MOG peptide pMOG35-55 in CFA induces chronic progressive EAE.
24 mg MOG was diluted in 8 ml PBS (3 mg/ml, stock solution). Groups 1, 3 and 5: 3.5 ml of stock solution was diluted 1:1 with PBS. […] 4.5 ml of MOG stock solution was added to this solution.
The high dose LAQ (5 mg/10 ml/kg) solution (40 mg in 80 ml DDW) was prepared once weekly and stored at room temperature. For the dose of 2.5 mg/kg LAQ, 25 ml of this solution were added to 25 ml DDW. For the dose 1 mg/kg 5 ml of stock solution (high dose) were added to 20 ml DDW. The compound was administered by gavage once daily during the whole experiment (30 days) at a volume of 0.2 ml/mouse.
The mice were observed daily from the 9th day post-EAE induction (first injection of MOG) and the EAE clinical signs were scored according to the grades described in the 2 above.

MOG-induced EAE [3] = assay: MOG-induced EAE with GA blocking and s.c. daily GA (Example 2.5); format: in vivo, C57B1 mice; set-up: key to MMS value / GMS value: EAE clinical grade (Table 2); ≥1 = sick, 6 = dead/sacrificed
Procedure: The objective of this study was to test the suppressive effect of laquinimod alone and in combination with Glatiramer acetate in the EAE model in C57B1 mice. […] Laquinimod was administered orally at dose levels of 2.5 and 5.0 mg/kg.
EAE was induced in the mice by the injection of the encephalitogenic emulsion (MOG/CFA). Laquinimod was administered orally for 30 consecutive days.
EAE induction EAE was induced by injecting the encephalitogenic mixture (emulsion) consisting of MOG ([…]). A 0.2 ml emulsion was injected subcutaneously into the flanks of the mice. Pertussis toxin was injected intraperitoneally on the day of induction and 48 hours later (total amount will be 0.150+0.150=0.300 μg/mouse in 0.2 ml dosage volume).
Groups 1, 3-8: 45.9 mg MOG was diluted in […] Normal Saline (3.0 mg/ml MOG stock solution). 12.5 mL of 3.0 mg/ml stock solution was diluted in 12.5 mL Normal Saline to yield 1.5 mg MOG/mL. […] The emulsification was made from equal parts of oil and liquid portions (1:1) in two syringes connected to each other with Leur lock, transferred to insulin syringe and 0.2 ml was injected the right flank of each mouse. The dose of the MOG in all the groups (1 to 8) was […].
The test concentrations of laquinimod were prepared in purified water. For high dose (25.0 mg/kg) 2.5 mg/mL stock solution was prepared (group 8). The 2.5 mg/mL stock solution was diluted 1:5 and 1:10 to yield 0.5 and 0.25 mg/mL for dose levels of 5.0 mg/kg for groups 5 and 7 and 2.5 mg/kg respectively for groups #4 and 6. Laquinimod was administered daily from the initiation of the study, to the respective groups by gavage at a volume of 0.2 ml/mouse.
Every day one tube was thawed and brought to RT.
Clinical signs Scoring of EAE clinical signs was started from Day 10 post EAE induction and was continued daily until Day 30. The clinical signs were recorded according to a grading system described in the Table 2 above.
All mice having scores of 1 and above were considered sick. When the first clinical sign appeared all mice were given food soaked in water, which was spread on different places on the bedding of the cages. An animal which continued to have score 5 for three days was killed on humane grounds and given score 6 on the next day. For calculation purposes, the score of animals that were sacrificed or died (6) was carried forward.

MOG-induced EAE [4] = assay: MOG-induced EAE, repeat study (Example 2.3); format: in vivo, C57B1/6 mice
Procedure: 120 female C57B1/6 mice 8-10 weeks old were used the study. Mice were allocated randomly into 8 groups according to Table 7 below.
24 mg MOG was diluted in 8 ml PBS (3 mg/ml, stock solution). Groups 1, 3, 5 and 7: 4 ml of stock solution was diluted 1:1 with PBS. […] This solution was mixed 1:1 with the stock solution of MOG.
The high dose LAQ (25 mg/10 ml/kg) solution (150 mg in 60 ml DDW) was prepared once weekly and stored in the amber glass at room temperature. The lower LAQ doses were prepared daily. For the dose of 5 mg/kg, 1.6 ml of stock solution were added to 6.4 ml DDW. For the dose 1 mg/kg, […] of the previous solution (intermediate dose) were added to 5.2 ml DDW. The compound was administered by gavage once daily during the hole experiment (30 days) at a volume of 0.2 ml/mouse.
The mice were observed daily from the 10th day post-EAE induction (first injection of MOG) and the EAE clinical signs were scored according to the grades described in the 2 above.

[5] = laquinimod 2.5 mg/kg/day gavage, alone or + GA-blocking 12.5 mg/kg day 0
[6] = laquinimod 5 mg/kg/day gavage, alone or + GA-blocking 12.5 mg/kg day 0
[7] = LAQ 2.5 mg/kg oral daily 30 d, alone or + GA 250 mg/kg s.c. daily 10 d
[8] = LAQ 2.5 mg/kg oral daily 30 d, alone or + GA 250 mg/kg s.c. daily 10 d, listed as LAQ
[9] = LAQ 5.0 mg/kg oral daily 30 d, alone or + GA 250 mg/kg s.c. daily 10 d
[10] = laquinimod 1 mg/kg/day gavage, alone or + GA-blocking 12.5 mg/kg day 0
[11] = laquinimod 25 mg/kg/day gavage, alone or + GA-blocking 12.5 mg/kg day 0
[12] = GA-blocking 12.5 mg/kg in inoculum day 0
[13] = GA blocking 12.5 mg/kg once with encephalitogen
[14] = GA blocking 12.5 mg/kg once with encephalitogen, listed as GA blocking
[15] = GA-blocking 12.5 mg/kg with inoculum day 0

## CCN(C(=O)c1c(O)c2c(Cl)cccc2n(C)c1=O)c1ccccc1 [laquinimod]
MOG-induced EAE [1]; Mus musculus, laquinimod 2.5 mg/kg, alone or + GA Blocking, read-out: Mean percent inhibition, Examples 2.1-2.3 summarized
  inhibition at 2.5 mg/kg: 53.6%
MOG-induced EAE [1]; Mus musculus, laquinimod 5 mg/kg, alone or + GA Blocking, read-out: Mean percent inhibition, Examples 2.1-2.3 summarized
  inhibition at 5 mg/kg: 57.3%
MOG-induced EAE [1]; Mus musculus, laquinimod 25 mg/kg, alone or + GA Blocking, read-out: Mean percent inhibition, Examples 2.1-2.3 summarized
  inhibition at 25 mg/kg: 74.9%
MOG-induced EAE [2]; Mus musculus, po, 0 h, laquinimod 2.5 mg/kg/day gavage, alone or + GA-blocking 12.5 mg/kg day 0, read-out: % Inhibition compared to control (GMS)
  inhibition at 2.5 mg/kg: 53.7%
MOG-induced EAE [2]; Mus musculus, po, 0 h, laquinimod 5 mg/kg/day gavage, alone or + GA-blocking 12.5 mg/kg day 0, read-out: % Inhibition compared to control (GMS)
  inhibition at 5 mg/kg: ≤ 68%
MOG-induced EAE [2]; [5]
  Group Mean Score: 1.50**
  Incidence: 13/15
  Mean Disease Duration: 10.2*** days
  Mean Maximal Score: 3.17**
  Mean Onset: 18.9*** days
  Mortality: 1/15
MOG-induced EAE [2]; [6]
  % inhibition compared to Control (GMS): 68.2%
  Group Mean Score: 1.03***
  Incidence: 12/14
  Mean Disease Duration: 8.6*** days
  Mean Maximal Score: 2.89**
  Mean Onset: 18.1*** days
  Mortality: 0/14
MOG-induced EAE [3]; [7]
  % Inhibition 1 (incidence): 57.1%
  GMS value: 0.5 ± 0.8
  Incidence: 6/15
  MMS % Inhibition 2: 55.9%
  MMS value: 1.5 ± 2.1
  Mean Duration: 0.8 ± 2.6 days
  Mean Onset: 30.3 ± 2.6 days
  Mortality: One
MOG-induced EAE [3]; [8]
  GMS % Inhibition 3: 76.2%
  Mortality: 1/15
MOG-induced EAE [3]; LAQ 2.5 mg/kg oral daily 30 d, alone or + GA 250 mg/kg s.c. daily 10 d, listed as LQ
  GMS % Inhibition 3: 76.2%
MOG-induced EAE [3]; [9]
  % Inhibition 1 (incidence): 64.3%
  GMS value: 0.6 ± 0.7
  Incidence: 9/15
  MMS % Inhibition 2: 38.2%
  MMS value: 2.1 ± 1.8
  Mean Duration: 5.7 ± 6.6 days
  Mean Onset: 25.1 ± 6.8 days
  Mortality: 0/15
MOG-induced EAE [3]; LAQ 25.0 mg/kg oral daily 30 d
  % Inhibition 1 (incidence): 100.0%
  GMS % Inhibition 3: 100.0%
  GMS value: 0.0 ± 0.0
  Incidence: 0/15
  MMS % Inhibition 2: 100.00%
  MMS value: 0.0 ± 0.0
  Mean Duration: 31.0 ± 0.0 days
  Mean Onset: 0.0 ± 0.0 days
  Mortality: 0/15
MOG-induced EAE [3]; LAQ 25.0 mg/kg oral daily 30 d, listed as LAQ
  GMS % Inhibition 3: 100.00%
MOG-induced EAE [3]; LAQ 25.0 mg/kg oral daily 30 d, listed as LQ
  GMS % Inhibition 3: 100%
MOG-induced EAE [4]; Mus musculus, po, 0 h, laquinimod 1 mg/kg/day gavage, alone or + GA-blocking 12.5 mg/kg day 0, read-out: % inhibition compared to Control (GMS)
  inhibition at 1 mg/kg: -1.2%
MOG-induced EAE [4]; Mus musculus, po, 0 h, laquinimod 5 mg/kg/day gavage, alone or + GA-blocking 12.5 mg/kg day 0, read-out: % inhibition compared to Control (GMS)
  inhibition at 5 mg/kg: 70%
MOG-induced EAE [4]; Mus musculus, po, 0 h, laquinimod 25 mg/kg/day gavage, alone or + GA-blocking 12.5 mg/kg day 0, read-out: % inhibition compared to Control (GMS)
  inhibition at 25 mg/kg: 95%
MOG-induced EAE [4]; [10]
  Group Mean Score: 2.50
  Incidence: 15/15
  Mean Disease Duration: 14.1 days
  Mean Maximal Score: 4.27
  Mean Onset: 13.7 days
  Mortality: 4/15
MOG-induced EAE [4]; [6]
  Group Mean Score: 0.74**
  Incidence: 11/15
  Mean Disease Duration: 6.3*** days
  Mean Maximal Score: 2.23*
  Mean Onset: 21.0*** days
  Mortality: 0/15
MOG-induced EAE [4]; [11]
  % inhibition compared to Control (GMS): 95.1%
  Group Mean Score: 0.12***
  Incidence: 6/15
  Mean Disease Duration: 1.5*** days
  Mean Maximal Score: 0.77***
  Mean Onset: 24.7*** days
  Mortality: 0/15

## L-glutamic acid polymer with L-alanine, L-lysine and L-tyrosine, acetate (salt) [GA]
MOG-induced EAE [1]; GA-blocking alone
  Mean percent inhibition, Examples 2.1-2.3 summarized: 67.6%
MOG-induced EAE [2]; [12]
  % inhibition compared to Control (GMS): 77.5%
  Group Mean Score: 0.73***
  Incidence: 11/14
  Mean Disease Duration: 7.1*** days
  Mean Maximal Score: 2.18***
  Mean Onset: 18.7*** days
MOG-induced EAE [3]; GA 250 mg/kg s.c. daily 10 d
  % Inhibition 1 (incidence): 100.0%
  GMS % Inhibition 3: 4.8%
  GMS value: 2.0 ± 1.0
  Incidence: 13/15
  MMS % Inhibition 2: 2.9%
  MMS value: 3.3 ± 1.4
  Mean Duration: 12.1 ± 5.3 days
  Mean Onset: 18.1 ± 5.5 days
MOG-induced EAE [3]; [13]
  % Inhibition 1 (incidence): 57.1%
  GMS value: 0.7 ± 1.0
  Incidence: 6/15
  MMS % Inhibition 2: 61.8%
MOG-induced EAE [3]; [14]
  GMS % Inhibition 3: 66.7%
  MMS value: 1.3 and 1.3 ± 1.8
  Mean Duration: 12.1 days and 12.1 ± 5.3 days
  Mean Onset: 26.1 ± 7.0 days
MOG-induced EAE [3]; GA blocking 12.5 mg/kg once with encephalitogen, listed as GA-Block
  GMS % Inhibition 3: (66.7) %
MOG-induced EAE [4]; [15]
  % inhibition compared to Control (GMS): 78.9%
  Group Mean Score: 0.52***
  Incidence: 5/15
  Mean Disease Duration: 3.7*** days
  Mean Maximal Score: 0.97***
  Mean Onset: 25.6*** days
